{"source": "patent US20210094971A1", "about": "“HETEROCYCLIC COMPOUNDS” (Hoffmann-La Roche Inc., priority 2019, published 2021)"}
{"target": "T1, MAGL (Homo sapiens, UniProt Q99685)", "T1 sequence (Q99685 1-303)": "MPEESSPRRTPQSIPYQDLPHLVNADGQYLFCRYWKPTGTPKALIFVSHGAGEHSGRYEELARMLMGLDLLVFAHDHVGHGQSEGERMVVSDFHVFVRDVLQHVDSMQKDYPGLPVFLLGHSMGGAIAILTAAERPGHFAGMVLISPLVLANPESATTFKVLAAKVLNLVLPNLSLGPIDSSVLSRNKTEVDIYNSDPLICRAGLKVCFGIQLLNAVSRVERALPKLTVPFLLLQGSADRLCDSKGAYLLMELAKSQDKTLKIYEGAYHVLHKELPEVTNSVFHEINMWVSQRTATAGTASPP", "test": "2-AG assay (MAGL inhibitory activity, hydrolysis of 2-arachidonoylglycerol followed by mass spectrometry)", "assay_type": "biochemical", "details": "50 pM MAGL, 8 μM 2-arachidonoylglycerol, 15 min pre-incubation, 30 min incubation at RT", "protocol": "Compounds were profiled for MAGL inhibitory activity by determining the enzymatic activity by following the hydrolysis of the natural substrate 2-arachidonoylglycerol resulting in arachidonic acid, which can be followed by mass spectrometry. This assay is hereinafter abbreviated “2-AG assay”.\nThe 2-AG assay was carried out in 384 well assay plates (PP, Greiner Cat# 784201) in a total volume of 20 μL. Compound dilutions were made in 100% DMSO (VWR Chemicals 23500.297) in a polypropylene plate in 3-fold dilution steps to give a final concentration range in the assay from 12.5 μM to 0.8 pM. 0.25 μL compound dilutions (100% DMSO) were added to 9 μL MAGL in assay buffer (50 mM TRIS (GIBCO, 15567-027), 1 mM EDTA (Fluka, 03690-100 ml), 0.01% (v/v) Tween. After shaking, the plate was incubated for 15 min at RT. To start the reaction, 10 μL 2-arachidonoylglycerol in assay buffer was added. The final concentrations in the assay was 50 pM MAGL and 8 μM 2-arachidonoylglyerol. After shaking and 30 min incubation at RT, the reaction was quenched by the addition of 40 μL of acetonitrile containing 4 μM of d8-arachidonic acid. The amount of arachidonic acid was traced by an online SPE system (Agilent Rapidfire) coupled to a triple quadrupole mass spectrometer (Agilent 6460). A C18 SPE cartridge (G9205A) was used in an acetonitrile/water liquid setup. The mass spectrometer was operated in negative electrospray mode following the mass transitions 303.1→259.1 for arachidonic acid and 311.1→267.0 for d8-arachidonic acid. The activity of the compounds was calculated based on the ratio of intensities [arachidonic acid/d8-arachidonic acid].", "units": {"IC50": "nM"}}
{"smiles": "O=C1CO[C@H]2CCN(C(=O)N3C[C@H]4C[C@@H]3C[C@@H]4OCc3cc4c(cn3)CCCC4)C[C@H]2N1", "note": "(relative stereo) [Example 9, (4aR,8aS)-6-[rel-(1R,4R,5S)-5-(5,6,7,8-tetrahydroisoquinolin-3-ylmethoxy)-2-azabicyclo[2.2.1]heptane-2-carbonyl]-4,4a,5,7,8,8a-hexahydropyrido[4,3-b][1,4]oxazin-3-one]", "IC50": 76}
{"smiles": "O=C1CO[C@H]2CCN(C(=O)N3C[C@@H]4C[C@H](OCc5ccc(C(F)(F)F)cc5F)[C@H]3C4)C[C@H]2N1", "note": "(relative stereo) [Example 18, (4aR,8aS)-6-[rel-(1R,4S,6S)-6-[[2-fluoro-4-(trifluoromethyl)phenyl]methoxy]-2-azabicyclo[2.2.1]heptane-2-carbonyl]-4,4a,5,7,8,8a-hexahydropyrido[4,3-b][1,4]oxazin-3-one]", "IC50": 1050}
{"smiles": "O=C1CO[C@H]2CCN(C(=O)N3C[C@H]4C[C@@H]3[C@H](OCc3ccc(C(F)(F)F)cc3F)C4)C[C@H]2N1", "note": "(relative stereo) [Example 19, (4aR,8aS)-6-[rel-(1R,4S,6R)-6-[[2-fluoro-4-(trifluoromethyl)phenyl]methoxy]-2-azabicyclo[2.2.1]heptane-2-carbonyl]-4,4a,5,7,8,8a-hexahydropyrido[4,3-b][1,4]oxazin-3-one]", "IC50": 1140}
{"smiles": "O=C1CO[C@H]2CCN(C(=O)N3CC4CC(Oc5ccccc5Cl)CC4C3)C[C@H]2N1", "note": "(stereo partly drawn) [Example 1, (4aR,8aS)-6-(5-(2-chlorophenoxy)-3,3a,4,5,6,6a-hexahydro-1H-cyclopenta[c]pyrrole-2-carbonyl)-4,4a,5,7,8,8a-hexahydropyrido[4,3-b][1,4]oxazin-3-one]", "IC50": 8.9}
{"smiles": "Cc1ccccc1OC1CC2CN(C(=O)N3CC[C@@H]4OCC(=O)N[C@@H]4C3)CC2C1", "note": "(stereo partly drawn) [Example 2, (4aR,8aS)-6-(5-(2-methylphenoxy)-3,3a,4,5,6,6a-hexahydro-1H-cyclopenta[c]pyrrole-2-carbonyl)-4,4a,5,7,8,8a-hexahydropyrido[4,3-b][1,4]oxazin-3-one]", "IC50": 19.8}
{"smiles": "O=C1CO[C@H]2CCN(C(=O)N3CC4CN(S(=O)(=O)c5ccccc5)CC4C3)C[C@H]2N1", "note": "(stereo partly drawn) [Example 3, (4aR,8aS)-6-(5-(benzenesulfonyl)-1,3,3a,4,6,6a-hexahydropyrrolo[3,4-c]pyrrole-2-carbonyl)-4,4a,5,7,8,8a-hexahydropyrido[4,3-b][1,4]oxazin-3-one]", "IC50": 2280}
{"smiles": "O=C1CO[C@H]2CCN(C(=O)N3CC4CN(S(=O)(=O)c5ccc(C(F)(F)F)cc5)CC4C3)C[C@H]2N1", "note": "(stereo partly drawn) [Example 4, (4aR,8aS)-6-(5-[4-(trifluoromethyl)phenyl]sulfonyl-1,3,3a,4,6,6a-hexahydropyrrolo[3,4-c]pyrrole-2-carbonyl)-4,4a,5,7,8,8a-hexahydropyrido[4,3-b][1,4]oxazin-3-one]", "IC50": 929}
{"smiles": "O=C1CO[C@H]2CCN(C(=O)N3CC4CN(S(=O)(=O)c5ccc(F)cc5Cl)CC4C3)C[C@H]2N1", "note": "(stereo partly drawn) [Example 5, (4aR,8aS)-6-(5-(2-chloro-4-fluoro-phenyl)sulfonyl-1,3,3a,4,6,6a-hexahydropyrrolo[3,4-c]pyrrole-2-carbonyl)-4,4a,5,7,8,8a-hexahydropyrido[4,3-b][1,4]oxazin-3-one]", "IC50": 676}
{"smiles": "O=C1CO[C@H]2CCN(C(=O)N3C[C@@H]4[C@H](C3)[C@H]4c3ccn(-c4ccc(F)cc4)n3)C[C@H]2N1", "note": "[Example 6, (4aR,8aS)-6-[(1R,5S,6r)-6-[1-(4-fluorophenyl)pyrazol-3-yl]-3-azabicyclo[3.1.0]hexane-3-carbonyl]-4,4a,5,7,8,8a-hexahydropyrido[4,3-b][l,4]oxazin-3-one]", "IC50": 261}
{"smiles": "O=C1CO[C@H]2CCN(C(=O)N3C[C@@H]4[C@H](C3)[C@H]4c3ccn(-c4ccc(F)c(C(F)(F)F)c4)n3)C[C@H]2N1", "note": "[Example 7, (4aR,8aS)-6-[(1R,5S,6r)-6-[1-[4-fluoro-3-(trifluoromethyl)phenyl]pyrazol-3-yl]-3-azabicyclo[3.1.0]hexane-3-carbonyl]-4,4a,5,7,8,8a-hexahydropyrido[4,3-b][1,4]oxazin-3-one]", "IC50": 45.3}
{"smiles": "O=C1CO[C@H]2CCN(C(=O)N3C[C@@H]4[C@H](C3)[C@H]4c3ccn(-c4ccc(F)cc4Cl)n3)C[C@H]2N1", "note": "[Example 8, (4aR,8aS)-6-[(1R,5S,6r)-6-[1-(2-chloro-4-fluoro-phenyl)pyrazol-3-yl]-3-azabicyclo[3.1.0]hexane-3-carbonyl]-4,4a,5,7,8,8a-hexahydropyrido[4,3-b][1,4]oxazin-3-one]", "IC50": 112}
{"smiles": "O=C1CO[C@H]2CCN(C(=O)N3C[C@@H]4[C@@H](COc5ccc(F)cc5Cl)[C@@H]4C3)C[C@H]2N1", "note": "[Example 12, (4aR,8aS)-6-[(1R,5S,6r)-6-[(2-chloro-4-fluoro-phenoxy)methyl]-3-azabicyclo[3.1.0]hexane-3-carbonyl]-4,4a,5,7,8,8a-hexahydropyrido[4,3-b][1,4]oxazin-3-one]", "IC50": 6.3}
{"smiles": "O=C1CO[C@H]2CCN(C(=O)N3CC4CCC(C3)C4COc3ccc(F)cc3Cl)C[C@H]2N1", "note": "(stereo partly drawn) [Example 13, (4aR,8aS)-6-[8-[(2-chloro-4-fluoro-phenoxy)methyl]-3-azabicyclo[3.2.1]octane-3-carbonyl]-4,4a,5,7,8,8a-hexahydropyrido[4,3-b][1,4]oxazin-3-one]", "IC50": 5.1}
{"smiles": "O=C1CO[C@H]2CCN(C(=O)N3CC4CC(Oc5ccc(F)cc5Cl)CC4C3)C[C@H]2N1", "note": "(stereo partly drawn) [Example 14, (4aR,8aS)-6-[5-(2-chloro-4-fluoro-phenoxy)-3,3a,4,5,6,6a-hexahydro-1H-cyclopenta[c]pyrrole-2-carbonyl]-4,4a,5,7,8,8a-hexahydropyrido[4,3-b][1,4]oxazin-3-one]", "IC50": 3.5}
{"smiles": "O=C1CO[C@H]2CCN(C(=O)N3CC4CC(OCc5ccc(F)cc5Cl)CC4C3)C[C@H]2N1", "note": "(stereo partly drawn) [Example 15, (4aR,8aS)-6-[5-[(2-chloro-4-fluoro-phenyl)methoxy]-3,3a,4,5,6,6a-hexahydro-1H-cyclopenta[c]pyrrole-2-carbonyl]-4,4a,5,7,8,8a-hexahydropyrido[4,3-b][1,4]oxazin-3-one]", "IC50": 11}
{"smiles": "O=C1CO[C@H]2CCN(C(=O)N3CC4CC(OCc5ccc(C(F)(F)F)cc5F)CC4C3)C[C@H]2N1", "note": "(stereo partly drawn) [Example 16, (4aR,8aS)-6-[5-[[2-fluoro-4-(trifluoromethyl)phenyl]methoxy]-3,3a,4,5,6,6a-hexahydro-1H-cyclopenta[c]pyrrole-2-carbonyl]-4,4a,5,7,8,8a-hexahydropyrido[4,3-b][1,4]oxazin-3-one]", "IC50": 85.9}
{"smiles": "O=C1CO[C@H]2CCN(C(=O)N3CC4CC(Oc5ccc(C(F)(F)F)cc5F)CC4C3)C[C@H]2N1", "note": "(stereo partly drawn) [Example 17, (4aR,8aS)-6-[5-[2-fluoro-4-(trifluoromethyl)phenoxy]-3,3a,4,5,6,6a-hexahydro-1H-cyclopenta[c]pyrrole-2-carbonyl]-4,4a,5,7,8,8a-hexahydropyrido[4,3-b][1,4]oxazin-3-one]", "IC50": 4.7}
{"smiles": "O=C1CO[C@H]2CCN(C(=O)N3CC4CC(C3)C4OCc3ccc(C(F)(F)F)cc3F)C[C@H]2N1", "note": "(stereo partly drawn) [Example 22, (4aR,8aS)-6-[6-[[2-fluoro-4-(trifluoromethyl)phenyl]methoxy]-3-azabicyclo[3.1.1]heptane-3-carbonyl]-4,4a,5,7,8,8a-hexahydropyrido[4,3-b][1,4]oxazin-3-one]", "IC50": 217}
